Measurements reported in US20050197350A1, “Novel quinoline, tetrahydroquinazoline, and pyrimidine derivatives and methods of treatment related to the use thereof” (TAISHO PHARMACEUTICAL CO., LTD., priority 2003, published 2005).
Read-outs that look alike come from different tables or passages of the source.

Tested on: MCH receptors
Assay: MCH receptor activity class (method not given)
[1] = class by percent of control at 10^-7 M or IC50
[2] = class by percent of control at 10^−7 M or IC50
[3] = activity class 1-3: percent of control at 10^-7 M or IC50
[4] = activity class per percent of control at 10^-7 M or IC50
[5] = MCH receptor, class by percent of control at 10^-7 M or IC50
[6] = class 1-3 by percent of control at 10^-7 M or IC50

Row | SMILES | class [1] | further results
1 | COc1ccc(NC(=O)N[C@H]2CC[C@@H](Nc3cc(N(C)C)c4ccccc4n3)CC2)c(OC)c1 [compound 2141] | 3 (Class 3 The value of percent of control at 10^−7 M was more than 60% or the value of IC50 was more than 200 nM.) | –
2 | Cc1cc(Br)cc(C)c1NC(=O)N[C@H]1CC[C@@H](Nc2nccc(N(C)C)n2)CC1 [compound 2210, N-(4-bromo-2,6-dimethylphenyl)-N′-(cis-4-{[4-(dimethylamino)pyrimidin-2-yl]amino}cyclohexyl)urea] | 1 (Class 1: The value of percent of control at 10^−7 M was less than 40% or the value of IC50 was less than 50 nM.) | –
3 | COc1cc([N+](=O)[O-])ccc1C(=O)N[C@H]1CC[C@@H](Nc2cc(N(C)C)c3ccccc3n2)CC1 [compound 771, N-(cis-4-{[4-(dimethylamino)quinolin-2-yl]amino}cyclohexyl)-2-methoxy-4-nitrobenzamide] | 2 (Class 2: The value of percent of control at 10^−7 M was from 40% to 60% or the value of IC′50 was from 50 nM to 200 nM.) | –
4 | CN(C)c1ccnc(N[C@H]2CC[C@@H](CNC(=O)c3ccc(I)o3)CC2)n1 [compound 932, N-[(cis-4-{[4-(dimethylamino)pyrimidin-2-yl]amino}cyclohexyl)methyl]-5-iodo-2-furamide] | 2 (Class 2: The value of percent of control at 10^−7 M was from 40% to 60% or the value of IC′50 was from 50 nM to 200 nM.) | –
5 | CN(C)c1nc(N[C@H]2CC[C@@H](CNC(=O)c3ccc(-c4ccccc4)cc3)CC2)nc2c1CCCC2 [compound 654] | 3 (Class 3 The value of percent of control at 10^−7 M was more than 60% or the value of IC50 was more than 200 nM.) | –
6 | Cc1cc(N[C@H]2CC[C@@H](NC(=O)c3ccc(F)cc3)CC2)nc2ccccc12 [Example 2545, 4-fluoro-N-{cis-4-[(4-methylquinolin-2-yl)amino]cyclohexyl}benzamide] | – | class: 1
7 | Cc1cc(N(C)C)nc(N[C@H]2CC[C@@H](C(=O)NCc3ccc(Cl)cc3)CC2)n1 [compound 2816, cis-N-(4-chlorobenzyl)-4-{[4-(dimethylamino)-6-methylpyrimidin-2-yl]amino}cyclohexanecarboxamide] | – | class [2]: 1 (Class 1: The value of percent of control at 10^−7 M was less than 40% or the value of IC50 was less than 50 nM.)
8 | CCCCCCCCOC(=O)NC[C@H]1CC[C@@H](Nc2cc(N(C)C)c3ccccc3n2)CC1 [compound 1566] | – | class [3]: 3 (Class 3 The value of percent of control at 10^−7 M was more than 60% or the value of IC50 was more than 200 nM.)
9 | CN(C)c1nc(N[C@H]2CC[C@@H](CNCc3c[nH]nc3-c3ccc(C(F)(F)F)cc3)CC2)nc2c1CCCC2 [compound 1377] | 2 (Class 2: The value of percent of control at 10^−7 M was from 40% to 60% or the value of IC′50 was from 50 nM to 200 nM.) | –
10 | CCOc1ccccc1CNC[C@H]1CC[C@@H](Nc2cc(N(C)C)c3ccccc3n2)CC1 [compound 1123] | – | class [4]: 2 (Class 2: The value of percent of control at 10^−7 M was from 40% to 60% or the value of IC′50 was from 50 nM to 200 nM.)
11 | CN(C)c1ccnc(N[C@H]2CC[C@@H](CNCc3ccc(CO)o3)CC2)n1 [compound 1276] | 3 (Class 3 The value of percent of control at 10^−7 M was more than 60% or the value of IC50 was more than 200 nM.) | –
12 | CN(C)c1nc(N[C@H]2CC[C@@H](NC(=O)c3ccccc3C(=O)c3cccc4ccccc34)CC2)nc2c1CCCC2 [compound 1025] | – | class [4]: 3 (Class 3 The value of percent of control at 10^−7 M was more than 60% or the value of IC50 was more than 200 nM.)
13 | COc1cc(NC(=S)N[C@H]2CC[C@@H](Nc3nccc(N(C)C)n3)CC2)cc(OC)c1OC [compound 2265, N-(cis-4-{[4-(dimethylamino)pyrimidin-2-yl]amino}cyclohexyl)-N′-(3,4,5-trimethoxyphenyl)thiourea] | 1 (Class 1: The value of percent of control at 10^−7 M was less than 40% or the value of IC50 was less than 50 nM.) | –
14 | CC(=O)c1cccc(NC(=S)N[C@H]2CC[C@@H](Nc3nc4c(c(N(C)C)n3)CCCC4)CC2)c1 [compound 1925] | – | class [5]: 3 (Class 3 The value of percent of control at 10^−7 M was more than 60% or the value of IC50 was more than 200 nM.)
15 | CC(=O)OC(C(=O)N[C@H]1CC[C@@H](Nc2cc(N(C)C)c3ccccc3n2)CC1)c1ccccc1 (relative stereo) [compound 92] | – | class [5]: 3 (Class 3 The value of percent of control at 10^−7 M was more than 60% or the value of IC50 was more than 200 nM.)
16 | CN(C)c1cc(N[C@H]2CC[C@@H](CNC(=O)OCC3c4ccccc4-c4ccccc43)CC2)nc2ccccc12 [compound 1577] | – | class [3]: 3 (Class 3 The value of percent of control at 10^−7 M was more than 60% or the value of IC50 was more than 200 nM.)
17 | CN(C)c1nc(N[C@H]2CC[C@@H](CNC(=O)/C=C/c3ccccc3)CC2)nc2c1CCCC2 [compound 588] | – | class [6]: 3 (Class 3 The value of percent of control at 10^−7 M was more than 60% or the value of IC50 was more than 200 nM.)
18 | CN(C)c1ccnc(N[C@H]2CC[C@@H](CNC(=O)c3c(F)ccc(F)c3F)CC2)n1 [compound 445] | – | class [6]: 3 (Class 3 The value of percent of control at 10^−7 M was more than 60% or the value of IC50 was more than 200 nM.)

Row | SMILES | class [1] | further results
19 | CN(C)c1nc(N[C@H]2CC[C@@H](NC(=O)Nc3cccc(SC(F)(F)F)c3)CC2)nc2c1CCCC2 [compound 1866] | 3 (Class 3 The value of percent of control at 10^−7 M was more than 60% or the value of IC50 was more than 200 nM.) | –
20 | Cc1ccc(C(=O)NC[C@H]2CC[C@@H](Nc3cc(N(C)C)c4ccccc4n3)CC2)cc1F [compound 201, N-[(cis-4-{[4-(dimethylamino)quinolin-2-yl]amino}cyclohexyl)methyl]-3-fluoro-4-methylbenzamide] | – | class [5]: 3 (Class 3 The value of percent of control at 10^−7 M was more than 60% or the value of IC50 was more than 200 nM.)
21 | CN(C)c1cc(N[C@H]2CC[C@@H](NC(=S)Nc3ccc(Br)cc3)CC2)nc2ccccc12 [compound 2167] | 3 (Class 3 The value of percent of control at 10^−7 M was more than 60% or the value of IC50 was more than 200 nM.) | –
22 | CC(CN[C@H]1CC[C@@H](Nc2nc3c(c(N(C)C)n2)CCCC3)CC1)c1ccccc1 (relative stereo) [compound 1352] | 3 (Class 3 The value of percent of control at 10^−7 M was more than 60% or the value of IC50 was more than 200 nM.) | –
23 | CCOc1ccccc1C(=O)N[C@H]1CC[C@@H](Nc2nccc(N(C)C)n2)CC1 [compound 290] | 3 (Class 3 The value of percent of control at 10^−7 M was more than 60% or the value of IC50 was more than 200 nM.) | –
24 | Cc1ccc(OC(=O)NC[C@H]2CC[C@@H](Nc3nccc(N(C)C)n3)CC2)cc1 [compound 1654] | – | class [3]: 3 (Class 3 The value of percent of control at 10^−7 M was more than 60% or the value of IC50 was more than 200 nM.)
25 | Cc1cc(N(C)C)nc(N[C@H]2CC[C@@H](C(=O)N[C@H](C)c3ccc(F)cc3)CC2)n1 [compound 2804] | – | class [2]: 2 (Class 2: The value of percent of control at 10^−7 M was from 40% to 60% or the value of IC′50 was from 50 nM to 200 nM.)
26 | CN(C)c1cc(N[C@H]2CC[C@@H](NC(=O)c3cc(-c4ccccc4)nc4ccccc34)CC2)nc2ccccc12 [compound 757, N-(cis-4-{[4-(dimethylamino)quinolin-2-yl]amino}cyclohexyl)-2-phenylquinoline-4-carboxamide] | 2 (Class 2: The value of percent of control at 10^−7 M was from 40% to 60% or the value of IC′50 was from 50 nM to 200 nM.) | –
27 | CN(C)c1ccnc(N[C@H]2CC[C@@H](NC(=O)c3ccc(F)cc3)CC2)n1 [compound 255, N-(cis-4-{[4-(dimethylamino)pyrimidin-2-yl]amino}cyclohexyl)-4-fluorobenzamide] | 3 (Class 3 The value of percent of control at 10^−7 M was more than 60% or the value of IC50 was more than 200 nM.) | –
28 | CN(C)c1nc(N[C@H]2CC[C@@H](NCc3c[nH]c4ccc(Br)cc34)CC2)nc2c1CCCC2 [compound 1334] | 3 (Class 3 The value of percent of control at 10^−7 M was more than 60% or the value of IC50 was more than 200 nM.) | –
29 | COc1cc(CN[C@H]2CC[C@@H](Nc3nccc(N(C)C)n3)CC2)cc(OC)c1O [compound 1216] | 3 (Class 3 The value of percent of control at 10^−7 M was more than 60% or the value of IC50 was more than 200 nM.) | –
30 | CC(C(=O)N[C@H]1CC[C@@H](Nc2nc3c(c(N(C)C)n2)CCCC3)CC1)c1ccc(C(=O)c2cccs2)cc1 (relative stereo) [compound 1020] | – | class [4]: 2 (Class 2: The value of percent of control at 10^−7 M was from 40% to 60% or the value of IC′50 was from 50 nM to 200 nM.)
31 | CN(C)c1ccnc(N[C@H]2CC[C@@H](NC(=O)CCC(=O)c3cccs3)CC2)n1 [compound 885] | 3 (Class 3 The value of percent of control at 10^−7 M was more than 60% or the value of IC50 was more than 200 nM.) | –
32 | Cc1nn(-c2ccccc2)nc1C(=O)N[C@H]1CC[C@@H](Nc2nc3c(c(N(C)C)n2)CCCC3)CC1 [compound 543] | – | class [6]: 2 (Class 2: The value of percent of control at 10^−7 M was from 40% to 60% or the value of IC′50 was from 50 nM to 200 nM.)
33 | CN(C)c1cc(N[C@H]2CC[C@@H](CNC(=O)Cc3ccc(F)cc3Cl)CC2)nc2ccccc12 [compound 790] | 3 (Class 3 The value of percent of control at 10^−7 M was more than 60% or the value of IC50 was more than 200 nM.) | –
34 | COc1cccc([C@@H](C)NC(=O)[C@H]2CC[C@@H](Nc3nc(C)cc(N(C)C)n3)CC2)c1 [compound 2796, cis-4-{[4-(dimethylamino)-6-methylpyrimidin-2-yl]amino}-N-[(1R)-1-(3-methoxyphenyl)ethyl]cyclohexanecarboxamide] | – | class [2]: 2 (Class 2: The value of percent of control at 10^−7 M was from 40% to 60% or the value of IC′50 was from 50 nM to 200 nM.)
35 | CCc1cccc(CC)c1NC(=O)N[C@H]1CC[C@@H](Nc2nc3c(c(N(C)C)n2)CCCC3)CC1 [compound 1672] | – | class [3]: 1 (Class 1: The value of percent of control at 10^−7 M was less than 40% or the value of IC50 was less than 50 nM.)
36 | CN(C)c1nc(N[C@H]2CC[C@@H](NC(=O)NC3CCCC3)CC2)nc2c1CCCC2 [compound 1907] | – | class [5]: 3 (Class 3 The value of percent of control at 10^−7 M was more than 60% or the value of IC50 was more than 200 nM.)
